Results: patent US12503438B2, “Compounds for the treatment of kinase-dependent disorders” (Exelixis, Inc., priority 2019, dated 2025)
pIC50: −log10 of the molar value.

Experiments:
KDR = KDR (Homo sapiens, UniProt P35968); assay: KDR autophosphorylation ELISA in HUVEC cells; format: cell-based; set-up: endogenous in cells; host or cells: HUVEC (Lonza #C2519A); conditions: cellular activity, VEGF165-stimulated, phospho-KDR ELISA
In short: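 Compound pretreatment (1 h, 0.3% DMSO) of serum-starved HUVEC preceded a 5 min pulse of 100 ng/mL VEGF165, after which cells were lysed. Phospho-KDR was quantified by ELISA relative to stimulated and unstimulated controls.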

Mer = biological target: T1, Mer (Homo sapiens, UniProt Q12866); assay: Mer autophosphorylation ELISA in transient transfected 293A cells; format: cell-based; conditions: cellular activity; MERTK-transfected 293A cells, phospho-Mer ELISA
T1 construct: host or cells: 293A cells (Thermo Fisher #R70507)
T1 sequence (Q12866 21-999): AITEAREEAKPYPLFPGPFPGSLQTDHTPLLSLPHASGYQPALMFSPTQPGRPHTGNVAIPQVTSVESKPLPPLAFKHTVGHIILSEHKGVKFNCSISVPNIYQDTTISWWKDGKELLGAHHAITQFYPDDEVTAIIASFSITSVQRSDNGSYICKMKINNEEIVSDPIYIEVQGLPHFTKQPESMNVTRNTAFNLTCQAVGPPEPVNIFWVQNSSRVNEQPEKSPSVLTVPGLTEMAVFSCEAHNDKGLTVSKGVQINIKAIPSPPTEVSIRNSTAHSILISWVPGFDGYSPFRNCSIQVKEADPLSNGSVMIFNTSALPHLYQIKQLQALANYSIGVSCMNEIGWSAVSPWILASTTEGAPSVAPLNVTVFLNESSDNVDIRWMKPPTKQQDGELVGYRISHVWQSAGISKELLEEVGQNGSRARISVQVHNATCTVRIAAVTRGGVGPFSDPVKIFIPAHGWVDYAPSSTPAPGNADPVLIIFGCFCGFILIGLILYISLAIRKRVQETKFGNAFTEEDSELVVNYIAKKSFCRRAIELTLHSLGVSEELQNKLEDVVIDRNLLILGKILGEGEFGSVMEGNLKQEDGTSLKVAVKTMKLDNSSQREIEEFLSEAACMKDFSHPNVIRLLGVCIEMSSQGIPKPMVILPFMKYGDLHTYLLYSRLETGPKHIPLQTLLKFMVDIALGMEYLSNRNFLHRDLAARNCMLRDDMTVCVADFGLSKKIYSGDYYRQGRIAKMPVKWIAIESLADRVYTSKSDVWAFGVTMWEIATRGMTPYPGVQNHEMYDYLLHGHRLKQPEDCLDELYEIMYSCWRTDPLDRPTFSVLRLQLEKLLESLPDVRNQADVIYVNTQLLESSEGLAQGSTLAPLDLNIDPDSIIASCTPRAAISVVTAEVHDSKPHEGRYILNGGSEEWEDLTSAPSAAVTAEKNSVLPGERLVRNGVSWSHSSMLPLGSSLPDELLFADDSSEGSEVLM
In short: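 293A cells transiently transfected with human MERTK DNA, then treated 1 h with 8-point compound dilutions in serum-free medium (0.3% DMSO). Phospho-Mer in lysates quantified by sandwich ELISA against phospho-Mer standard; normalised to DMSO (100%) and reference inhibitor (0%), IC50 from 4-parameter logistic fit.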

KDR, sequence (P35968 20-1356): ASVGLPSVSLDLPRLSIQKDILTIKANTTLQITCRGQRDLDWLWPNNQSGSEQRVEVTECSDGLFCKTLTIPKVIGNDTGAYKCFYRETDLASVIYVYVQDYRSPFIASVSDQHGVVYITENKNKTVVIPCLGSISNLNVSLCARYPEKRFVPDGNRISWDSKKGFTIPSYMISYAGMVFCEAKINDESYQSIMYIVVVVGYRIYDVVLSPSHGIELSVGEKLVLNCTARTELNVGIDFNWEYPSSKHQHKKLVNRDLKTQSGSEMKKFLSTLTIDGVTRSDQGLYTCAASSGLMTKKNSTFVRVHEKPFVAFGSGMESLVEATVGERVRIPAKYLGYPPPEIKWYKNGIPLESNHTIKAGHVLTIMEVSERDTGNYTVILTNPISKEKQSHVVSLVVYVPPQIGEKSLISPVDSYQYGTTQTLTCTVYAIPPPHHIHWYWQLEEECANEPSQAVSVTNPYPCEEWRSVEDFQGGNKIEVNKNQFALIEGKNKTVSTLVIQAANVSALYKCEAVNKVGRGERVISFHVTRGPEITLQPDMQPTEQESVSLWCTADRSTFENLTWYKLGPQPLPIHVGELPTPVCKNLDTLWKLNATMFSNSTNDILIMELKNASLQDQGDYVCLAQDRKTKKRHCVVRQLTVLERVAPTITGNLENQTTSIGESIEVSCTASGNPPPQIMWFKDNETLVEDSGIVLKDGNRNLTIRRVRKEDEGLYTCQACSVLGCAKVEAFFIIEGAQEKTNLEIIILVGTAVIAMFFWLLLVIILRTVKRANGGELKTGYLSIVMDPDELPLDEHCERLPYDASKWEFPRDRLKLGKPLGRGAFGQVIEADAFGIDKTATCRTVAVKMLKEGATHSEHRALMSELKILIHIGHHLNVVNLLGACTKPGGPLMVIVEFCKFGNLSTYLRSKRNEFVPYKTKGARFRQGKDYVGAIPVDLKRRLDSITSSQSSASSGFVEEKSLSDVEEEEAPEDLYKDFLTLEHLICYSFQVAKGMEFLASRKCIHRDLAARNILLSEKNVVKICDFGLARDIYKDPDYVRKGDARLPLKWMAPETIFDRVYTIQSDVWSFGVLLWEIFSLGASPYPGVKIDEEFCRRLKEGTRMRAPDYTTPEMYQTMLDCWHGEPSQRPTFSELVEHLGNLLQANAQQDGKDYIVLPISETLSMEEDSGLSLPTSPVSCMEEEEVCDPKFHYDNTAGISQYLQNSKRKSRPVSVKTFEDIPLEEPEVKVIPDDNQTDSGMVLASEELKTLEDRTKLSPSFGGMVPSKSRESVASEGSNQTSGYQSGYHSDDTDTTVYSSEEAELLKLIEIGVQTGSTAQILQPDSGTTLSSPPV

SMILES	pIC50 (KDR)	pIC50 (Mer)
Nc1n[nH]cc1-c1ccc2c(Oc3ccc(NC(=O)C4(C(=O)Nc5ccc(F)cc5)CC4)cc3)ccnc2c1 [Compound 90, 1-N-[4-[7-(3-Amino-1H-pyrazol-4-yl)quinolin-4-yl]oxyphenyl]-1-N′-(4-fluorophenyl)cyclopropane-1,1-dicarboxamide]	7.00 to 8.00	7.00 to 8.00
Cc1ccn(-c2ccc3c(Oc4ccc(NC(=O)C5(C(=O)Nc6ccc(F)cc6)CC5)cc4)ccnc3c2)n1 [Compound 91, 1-N′-(4-Fluorophenyl)-1-N-[4-[7-(3-methylpyrazol-1-yl)quinolin-4-yl]oxyphenyl]cyclopropane-1,1-dicarboxamide]	6.52 to 7.00	6.52 to 7.00
CC(=O)N1CCC(c2ccc3c(Oc4ccc(NC(=O)C5(C(=O)Nc6ccc(F)cc6)CC5)cc4)ccnc3c2)C1 (stereo not drawn) [Compound 92, 1-N-[4-[7-(1-Acetylpyrrolidin-3-yl)quinolin-4-yl]oxyphenyl]-1-N′-(4-fluorophenyl)cyclopropane-1,1-dicarboxamide]	6.52 to 7.00	7.00 to 8.00
CS(=O)(=O)N1CCC(c2ccc3c(Oc4ccc(NC(=O)C5(C(=O)Nc6ccc(F)cc6)CC5)cc4)ccnc3c2)C1 (stereo not drawn) [Compound 93, 1-N′-(4-Fluorophenyl)-1-N-[4-[7-(1-methylsulfonylpyrrolidin-3-yl)quinolin-4-yl]oxyphenyl]cyclopropane-1,1-dicarboxamide]	< 6.52	6.52 to 7.00
Cc1cnn(-c2ccc3c(Oc4ccc(NC(=O)C5(C(=O)Nc6ccc(F)cc6)CC5)cc4)ccnc3c2)c1 [Compound 96, 1-N′-(4-Fluorophenyl)-1-N-[4-[7-(4-methylpyrazol-1-yl)quinolin-4-yl]oxyphenyl]cyclopropane-1,1-dicarboxamide]	7.00 to 8.00	7.00 to 8.00
Nc1cc(-c2ccc3c(Oc4ccc(NC(=O)C5(C(=O)Nc6ccc(F)cc6)CC5)cc4)ccnc3c2)ccn1 [Compound 97, 1-N-[4-[7-(2-Aminopyridin-4-yl)quinolin-4-yl]oxyphenyl]-1-N′-(4-fluorophenyl)cyclopropane-1,1-dicarboxamide]	7.00 to 8.00	≥ 8.00
O=C(Nc1ccc(F)cc1)C1(C(=O)Nc2ccc(Oc3ccnc4cc(-c5ccn(C6CC6)n5)ccc34)cc2)CC1 [Compound 98, 1-N-[4-[7-(1-Cyclopropylpyrazol-3-yl)quinolin-4-yl]oxyphenyl]-1-N′-(4-fluorophenyl)cyclopropane-1,1-dicarboxamide]	7.00 to 8.00	6.52 to 7.00
Cc1cc(-c2ccc3c(Oc4ccc(NC(=O)C5(C(=O)Nc6ccc(F)cc6)CC5)cc4)ccnc3c2)nn1C [Compound 101, 1-N-[4-[7-(1,5-Dimethylpyrazol-3-yl)quinolin-4-yl]oxyphenyl]-1-N′-(4-fluorophenyl)cyclopropane-1,1-dicarboxamide]	7.00 to 8.00	7.00 to 8.00
O=C(Nc1ccc(F)cc1)C1(C(=O)Nc2ccc(Oc3ccnc4cc(-c5cc6ccccn6n5)ccc34)cc2)CC1 [Compound 104, 1-N′-(4-Fluorophenyl)-1-N-[4-(7-pyrazolo[1,5-a]pyridin-2-ylquinolin-4-yl)oxyphenyl]cyclopropane-1,1-dicarboxamide]	7.00 to 8.00	6.52 to 7.00
Cc1cc2c(Oc3cc(F)c(NC(=O)C4(C(=O)Nc5ccc(F)cc5)CC4)cc3F)ccnc2cc1-c1cnn(C)c1 [Compound 105, 1-N′-[2,5-Difluoro-4-[6-methyl-7-(1-methylpyrazol-4-yl)quinolin-4-yl]oxyphenyl]-1-N-(4-fluorophenyl)cyclopropane-1,1-dicarboxamide]	7.00 to 8.00	7.00 to 8.00
Cc1cc2c(Oc3ccc(NC(=O)C4(C(=O)Nc5ccc(F)cc5)CC4)cc3)ccnc2cc1-c1cc[nH]n1 [Compound 107, 1-N′-(4-Fluorophenyl)-1-N-[4-[6-methyl-7-(1H-pyrazol-3-yl)quinolin-4-yl]oxyphenyl]cyclopropane-1,1-dicarboxamide]	7.00 to 8.00	7.00 to 8.00
Cc1cc2c(Oc3ccc(NC(=O)C4(C(=O)Nc5ccc(F)cc5)CC4)cc3)ccnc2cc1-c1ccn(C)n1 [Compound 108, 1-N′-(4-Fluorophenyl)-1-N-[4-[6-methyl-7-(1-methylpyrazol-3-yl)quinolin-4-yl]oxyphenyl]cyclopropane-1,1-dicarboxamide]	7.00 to 8.00	6.52 to 7.00

Further lines, results first:

pIC50 (KDR)	pIC50 (Mer)	SMILES
7.00 to 8.00	6.52 to 7.00	O=C(Nc1ccc(F)cc1)C1(C(=O)Nc2ccc(Oc3ccnc4cc(-c5ccccc5)ccc34)cc2)CC1 [Compound 55, 1-N′-(4-Fluorophenyl)-1-N-[4-(7-phenylquinolin-4-yl)oxyphenyl]cyclopropane-1,1-dicarboxamide]
≥ 8.00	7.00 to 8.00	Cc1cn(-c2ccc3c(Oc4ccc(NC(=O)C5(C(=O)Nc6ccc(F)cc6)CC5)cc4)ccnc3c2)cn1 [Compound 87, 1-N′-(4-Fluorophenyl)-1-N-[4-[7-(4-methylimidazol-1-yl)quinolin-4-yl]oxyphenyl]cyclopropane-1,1-dicarboxamide]
≥ 8.00	7.00 to 8.00	O=C(Nc1ccc(F)cc1)C1(C(=O)Nc2ccc(Oc3ccnc4cc(-c5cnn(CF)c5)ccc34)cc2)CC1 [Compound 94, 1-N-[4-[7-[1-(Fluoromethyl)pyrazol-4-yl]quinolin-4-yl]oxyphenyl]-1-N′-(4-fluorophenyl)cyclopropane-1,1-dicarboxamide]
≥ 8.00	7.00 to 8.00	O=C(Nc1ccc(F)cc1)C1(C(=O)Nc2ccc(Oc3ccnc4cc(C5=CCOC5)ccc34)cc2)CC1 [Compound 95, 1-N-[4-[7-(2,5-Dihydrofuran-3-yl)quinolin-4-yl]oxyphenyl]-1-N′-(4-fluorophenyl)cyclopropane-1,1-dicarboxamide]
≥ 8.00	7.00 to 8.00	Cc1cc(-c2ccc3c(Oc4ccc(NC(=O)C5(C(=O)Nc6ccc(F)cc6)CC5)cc4)ccnc3c2)n[nH]1 [Compound 99, 1-N′-(4-Fluorophenyl)-1-N-[4-[7-(5-methyl-1H-pyrazol-3-yl)quinolin-4-yl]oxyphenyl]cyclopropane-1,1-dicarboxamide]
≥ 8.00	7.00 to 8.00	O=C(Nc1ccc(F)cc1)C1(C(=O)Nc2ccc(Oc3ccnc4cc(-c5ccn(CF)n5)ccc34)cc2)CC1 [Compound 102, 1-N-[4-[7-[1-(Fluoromethyl)pyrazol-3-yl]quinolin-4-yl]oxyphenyl]-1-N′-(4-fluorophenyl)cyclopropane-1,1-dicarboxamide]
